# Test results from article PMC12349913 (Biological & pharmaceutical bulletin, 2024).
# Target: full-length Plk1 (Homo sapiens, UniProt P53350)
# Assay: Fluorescence polarization
# Conditions: FP assay, serially diluted full-length protein
# Chain of full-length Plk1 (P53350 whole entry): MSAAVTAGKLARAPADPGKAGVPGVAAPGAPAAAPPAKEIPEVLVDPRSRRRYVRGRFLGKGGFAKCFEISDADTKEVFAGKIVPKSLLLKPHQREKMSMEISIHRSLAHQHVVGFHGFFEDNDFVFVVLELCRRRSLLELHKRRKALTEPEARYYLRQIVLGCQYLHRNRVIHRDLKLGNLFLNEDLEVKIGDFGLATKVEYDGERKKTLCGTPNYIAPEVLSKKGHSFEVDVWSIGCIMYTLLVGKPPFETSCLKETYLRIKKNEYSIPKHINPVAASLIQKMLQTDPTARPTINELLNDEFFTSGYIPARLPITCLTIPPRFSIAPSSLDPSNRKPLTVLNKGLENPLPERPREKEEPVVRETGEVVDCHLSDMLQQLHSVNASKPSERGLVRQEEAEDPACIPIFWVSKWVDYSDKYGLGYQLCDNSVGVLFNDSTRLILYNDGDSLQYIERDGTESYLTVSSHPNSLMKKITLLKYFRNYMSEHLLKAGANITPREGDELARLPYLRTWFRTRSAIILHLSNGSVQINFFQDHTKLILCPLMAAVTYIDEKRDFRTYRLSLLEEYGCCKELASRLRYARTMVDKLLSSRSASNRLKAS
substance,measurement,value
5-carboxyfluorescein (5CF)-GPMQSpTPLNG-NH2 [5CF-GPMQSpTPLNG-NH2],FP signal response to full-length Plk1,did not show significant FP signal enhancement
